Data reported in US11795173B1, “Substituted pyridines as PARP1 inhibitors” (Xinthera, Inc., priority 2022, dated 2023).
pEC50: −log10 of the molar value.

Experiments:
[1] = system: MDA-MB-436 (mutated BRCA1) cells; assay: Cell growth inhibition assay (CellTiter-Glo), MDA-MB-436; format: cell-based; conditions: Homo sapiens, MDA-MB-436, 168 h; cell viability, CellTiter Glo 2.0, 7 days
Excerpt: The objective of this study is to evaluate the effect of compound disclosed herein on cell proliferation through the cell viability assay in DLD-1 BRCA2(−/−) and parental isogenic pair and MDA-MB-436 (mutated BRCA1) cell lines. The CellTiter-Glo (CTG) based cell viability assay is designed to determine the number of viable cells in the culture because of compound effect, by quantifying ATP, which indicates the presence of metabolically active cells.
(§1) DLD-1 BRCA2(−/−) and parental isogenic pair were cultured in RPMI 1640 supplemented with 10% fetal bovine serum (FBS), and MDA-MB-436 cells were cultured in DMEM supplemented with 10% FBS. Both are culture at 37° C. with 5% CO2. Invention compounds were distributed to the 384 well plate (Corning, 3764) using Echo acoustic liquid handler to form a 1:3 serially diluted final concentration with top dose of 10 or 30 μM. The cells were seeded into the plate in the density of 50 cells/well (DLD-1 parental), 200 cells/well (DLD-1 BRCA2−/−), or 500 cells/well (MDA-MB-436). After a short spun, the cells were cultured in a well moisturized incubator at 37° C. with 5% CO2 for 7 days without disturbance. The cell viability was measured by CellTiter Glo 2.0 assay kit (Promega, G9243), and growth inhibition rate was calculated and plotted against final compound concentration, and the data were fitted in Xfit to generate IC50.

DLD-1 BRCA2(−/−) cells = assay: Cell growth inhibition assay (CellTiter-Glo), DLD-1 BRCA2(−/−); format: cell-based; conditions: Homo sapiens, DLD-1, 168 h; cell viability, CellTiter Glo 2.0, 7 days
Method: The objective of this study is to evaluate the effect of compound disclosed herein on cell proliferation through the cell viability assay in DLD-1 BRCA2(−/−) and parental isogenic pair and MDA-MB-436 (mutated BRCA1) cell lines.
as §1, with “Invention compounds were distributed to the 384 well plate (Corning, 3764) using Echo acoustic liquid handler to form a 1:3 serially diluted final concentration with top dose of 10 or 30 μM.” left out

BCRP = BCRP (Homo sapiens (Human), UniProt Q9UNQ0); assay: In vitro human transporter efflux, MDCKII cells expressing BCRP; format: in vitro ADME; conditions: 10 μM, 2-hour incubation; for Papp A→B at 2 h, 10 μM: pH 7.4, apical-to-basolateral, pH7.4, read-out: BCRP Papp AB; for Papp B→A at 2 h, 10 μM: pH 7.4, basolateral-to-apical, pH7.4, read-out: BCRP Papp BA
Method: (§2) Madin-Darby canine kidney (MDCKII) cells expressing either MDR1 or BCRP were seeded onto Corning HTS Transwell® 96-well polycarbonate permeable (0.4 μm pore) supports at a density of 545,000 cells/cm^2. Cells were incubated for 4-8 days prior to assay, and monolayer integrity was assessed by measuring transepithelial electrical resistance (TEER). […] The final organic solvent concentration was 0.5% (v/v). Bidirectional (apical-to-basolateral and basolateral-to-apical) flux of the test and reference compounds was determined over a 2-hour incubation at 37° C. and 5% CO2 with a relative humidity of 95%. At the end of the incubation, samples from the apical and basolateral side were taken and then precipitated with acetonitrile containing internal standard. After centrifugation at 3200×g, supernatants were diluted 1:1 (v/v) with water and subjected to analysis via HPLC-MS/MS.
(§3) Apparent permeability (Papp, ×10^−6 cm/s) was calculated for all transport assays using the following equation: […]
(§4) Efflux ratio was determined by calculating the ratio of the Papp in the basolateral-to-apical direction to the Papp in the apical-to-basolateral direction using the following equation: […]

MDR1 = MDR1 (Homo sapiens (Human), UniProt P08183); assay: In vitro human transporter efflux, MDCKII cells expressing MDR1; format: in vitro ADME; conditions: for Papp A→B at 2 h, 10 μM: MDCK-MDR1, pH 7.4, apical-to-basolateral, pH7.4, read-out: MDCK-MDR1 Papp AB; for Papp A→B at 2 h, 10 μM / Papp B→A at 2 h, 10 μM: 2-hour incubation; for Papp B→A at 2 h, 10 μM: MDCK-MDR1, pH 7.4, basolateral-to-apical, pH7.4, read-out: MDCK-MDR1 Papp BA; for efflux ratio at 2 h, 10 μM: MDCK-MDR1, pH 7.4, efflux ratio Papp BA/Papp AB
Method: as §2, §3, §4

Sequence of MDR1 (P08183 whole entry): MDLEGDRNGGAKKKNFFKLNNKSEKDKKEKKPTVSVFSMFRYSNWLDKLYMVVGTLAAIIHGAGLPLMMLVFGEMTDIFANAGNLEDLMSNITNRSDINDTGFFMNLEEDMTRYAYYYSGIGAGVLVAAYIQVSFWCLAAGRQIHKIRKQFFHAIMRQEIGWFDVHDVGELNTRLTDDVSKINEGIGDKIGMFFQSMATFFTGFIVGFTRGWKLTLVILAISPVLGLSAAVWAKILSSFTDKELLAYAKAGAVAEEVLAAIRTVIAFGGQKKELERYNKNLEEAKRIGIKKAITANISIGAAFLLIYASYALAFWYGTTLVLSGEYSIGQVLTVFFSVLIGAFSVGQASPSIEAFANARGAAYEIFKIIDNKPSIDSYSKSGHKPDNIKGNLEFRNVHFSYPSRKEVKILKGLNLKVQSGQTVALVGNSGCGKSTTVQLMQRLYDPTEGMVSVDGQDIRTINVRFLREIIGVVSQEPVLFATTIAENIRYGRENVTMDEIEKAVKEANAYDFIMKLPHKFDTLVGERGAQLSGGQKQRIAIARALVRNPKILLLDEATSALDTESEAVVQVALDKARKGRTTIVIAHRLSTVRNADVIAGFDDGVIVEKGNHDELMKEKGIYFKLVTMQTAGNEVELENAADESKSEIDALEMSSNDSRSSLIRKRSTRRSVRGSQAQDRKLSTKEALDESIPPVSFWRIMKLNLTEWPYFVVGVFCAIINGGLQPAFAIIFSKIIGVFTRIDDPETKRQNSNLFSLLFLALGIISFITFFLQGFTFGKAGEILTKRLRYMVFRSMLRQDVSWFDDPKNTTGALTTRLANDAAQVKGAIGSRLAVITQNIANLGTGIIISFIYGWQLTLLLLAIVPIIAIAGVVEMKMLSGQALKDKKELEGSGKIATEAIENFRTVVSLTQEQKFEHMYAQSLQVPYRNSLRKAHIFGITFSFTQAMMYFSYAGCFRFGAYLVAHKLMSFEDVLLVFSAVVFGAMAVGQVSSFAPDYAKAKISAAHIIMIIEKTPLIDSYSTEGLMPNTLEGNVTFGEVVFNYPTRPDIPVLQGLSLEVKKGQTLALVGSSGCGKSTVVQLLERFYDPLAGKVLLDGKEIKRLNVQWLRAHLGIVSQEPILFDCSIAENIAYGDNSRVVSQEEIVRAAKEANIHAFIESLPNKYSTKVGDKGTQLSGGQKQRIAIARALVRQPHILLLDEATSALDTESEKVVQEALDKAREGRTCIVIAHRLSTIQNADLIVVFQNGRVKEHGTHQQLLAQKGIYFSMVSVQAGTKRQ
Sequence of BCRP (Q9UNQ0 whole entry): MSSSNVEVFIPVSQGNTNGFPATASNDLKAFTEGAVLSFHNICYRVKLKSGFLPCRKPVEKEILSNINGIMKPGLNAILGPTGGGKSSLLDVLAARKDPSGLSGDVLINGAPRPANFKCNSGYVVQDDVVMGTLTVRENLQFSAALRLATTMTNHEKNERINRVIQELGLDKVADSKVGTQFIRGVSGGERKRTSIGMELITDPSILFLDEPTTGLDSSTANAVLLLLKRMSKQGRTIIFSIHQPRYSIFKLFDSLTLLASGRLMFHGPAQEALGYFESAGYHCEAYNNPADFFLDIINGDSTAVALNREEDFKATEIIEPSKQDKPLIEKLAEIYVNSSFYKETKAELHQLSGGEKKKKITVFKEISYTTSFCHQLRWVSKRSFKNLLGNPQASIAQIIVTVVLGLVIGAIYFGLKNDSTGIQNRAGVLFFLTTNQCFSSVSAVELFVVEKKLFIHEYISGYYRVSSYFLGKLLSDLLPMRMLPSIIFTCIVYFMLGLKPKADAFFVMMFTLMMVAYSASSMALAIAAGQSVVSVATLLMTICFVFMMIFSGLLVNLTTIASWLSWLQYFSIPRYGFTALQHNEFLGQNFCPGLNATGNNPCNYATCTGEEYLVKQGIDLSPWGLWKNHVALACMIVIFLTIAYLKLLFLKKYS

Compound	pEC50 [1]	pEC50 (DLD-1 BRCA2(−/−) cells)	Papp A→B at 2 h, 10 μM (BCRP) [×10⁻⁶ cm/s]	Papp B→A at 2 h, 10 μM (BCRP) [×10⁻⁶ cm/s]	Papp A→B at 2 h, 10 μM (MDR1) [×10⁻⁶ cm/s]	Papp B→A at 2 h, 10 μM (MDR1) [×10⁻⁶ cm/s]	efflux ratio at 2 h, 10 μM (MDR1)
[2H]C([2H])(c1ccc2c3c(c(=O)[nH]c2c1F)CCO3)N1CCN(c2ccc(C(=O)NC)nc2F)CC1 (single isomer, unassigned) [Example 24]	8.52	8.42	22.9	24.4	16.3	32.9	–
[2H]C([2H])([2H])NC(=O)c1ccc(N2CCN(Cc3ccc4c5c(c(=O)[nH]c4c3F)CCO5)CC2)c(F)n1 (single isomer, unassigned) [Example 22]	8.31	8.18	28.2	23.6	15.1	23.3	–
O=C(NCC(F)F)c1ccc(N2CCN(Cc3ccc4c([nH]c(=O)c5ccnn54)c3F)CC2)c(F)n1 [Example 12]	9.05	8.80	–	–	–	–	–
CNC(=O)c1ccc(N2CCN(Cc3ccc4c5c(c(=O)[nH]c4c3F)CCO5)CC2)c(C)n1 [Example 29]	8.68	8.37	–	–	–	–	–
Cc1cc2c(=O)[nH]c3c(F)c(CN4CCN(c5ccc(C(=O)NC6COC6)nc5F)CC4)ccc3n2n1 [Example 21]	9.18	8.89	–	–	–	–	–
[2H]C1([2H])Cc2c(c3ccc(CN4CCN(c5ccc(C(=O)NC)nc5F)CC4)c(F)c3[nH]c2=O)O1 (single isomer, unassigned) [Example 31, 6-fluoro-5-(4-((6-fluoro-4-oxo-2,3,4,5-tetrahydrofuro[3,2-c]quinolin-7-yl-2,2-d2)methyl)piperazin-1-yl)-N-methylpicolinamide]	8.16	8.11	–	–	–	–	–
O=C(NC1CC1)c1ccc(N2CCN(Cc3ccc4c([nH]c(=O)c5ccoc54)c3F)CC2)c(F)n1 [Example 14]	9.17	8.92	–	–	–	–	–
CNC(=O)c1ccc(N2CCN(Cc3ccc4c([nH]c(=O)n5cccc45)c3F)CC2)c(F)n1 [Example 7, 6-fluoro-5-[4-({7-fluoro-5-oxo-6H-pyrrolo[1,2-c]quinazolin-8-yl}methyl)piperazin-1-yl]-N-methylpyridine-2-carboxamide]	8.89	8.68	–	–	–	–	–
CNC(=O)c1ccc(N2CCN(Cc3ccc4c5c(c(=O)[nH]c4c3F)CCC5)CC2)c(F)n1 [Comp. Ex. 4, reference compound]	8.96	9.00	–	–	16.3	20.6	–
O=C(NC1CC1)c1ccc(N2CCN(Cc3ccc4c5c(c(=O)[nH]c4c3F)CCO5)CC2)c(F)n1 [Example 16]	8.51	8.29	–	–	–	–	–
COCCNC(=O)c1ccc(N2CCN(Cc3ccc4c([nH]c(=O)c5cc(C)nn54)c3F)CC2)c(F)n1 [Example 17]	8.89	8.82	–	–	–	–	–
O=C(NCC(F)F)c1ccc(N2CCN(Cc3ccc4c5c(c(=O)[nH]c4c3F)CCO5)CC2)c(F)n1 [Example 15]	9.12	8.72	–	–	–	–	–
O=C(NCC(F)F)c1ccc(N2CCN(Cc3ccc4c([nH]c(=O)c5ccoc54)c3F)CC2)c(F)n1 [Example 11]	9.07	8.96	–	–	–	–	–
Cc1cc2c(=O)[nH]c3c(F)c(CN4CCN(c5ccc(C(=O)NCC(F)F)nc5F)CC4)ccc3n2n1 [Example 13]	8.92	8.85	–	–	–	–	–
[2H]C1([2H])COc2c1c(=O)[nH]c1c(F)c(CN3CCN(c4ccc(C(=O)NC)nc4F)CC3)ccc21 (single isomer, unassigned) [Example 32, 6-fluoro-5-(4-((6-fluoro-4-oxo-2,3,4,5-tetrahydrofuro[3,2-c]quinolin-7-yl-3,3-d2)methyl)piperazin-1-yl)-N-methylpicolinamide]	8.04	8.27	–	–	–	–	–
CNC(=O)c1nc(C)c(N2CCN(Cc3ccc4c5c(c(=O)[nH]c4c3F)CCO5)CC2)cc1F [Example 27]	7.85	7.68	–	–	–	–	–
CNC(=O)c1ccc(N2CCN(Cc3ccc4c([nH]c(=O)c5ccnn54)c3F)CC2)cn1 [Example 2]	7.17	–	–	–	–	–	–
CNC(=O)c1ccc(N2CCN(Cc3ccc4c5c(c(=O)[nH]c4c3F)CCO5)CC2)cn1 [Example 26]	8.22	8.12	–	–	–	–	–

The remaining lines, values ahead:

pEC50 [1]	pEC50 (DLD-1 BRCA2(−/−) cells)	Papp A→B at 2 h, 10 μM (BCRP) [×10⁻⁶ cm/s]	Papp B→A at 2 h, 10 μM (BCRP) [×10⁻⁶ cm/s]	Papp A→B at 2 h, 10 μM (MDR1) [×10⁻⁶ cm/s]	Papp B→A at 2 h, 10 μM (MDR1) [×10⁻⁶ cm/s]	efflux ratio at 2 h, 10 μM (MDR1)	Compound
8.57	8.33	–	–	–	–	–	CNC(=O)c1ccc(N2CCN(Cc3ccc4c([nH]c(=O)c5c(C)cnn54)c3F)CC2)c(F)n1 [Example 23]
7.51	7.24	–	–	–	–	–	CNC(=O)c1ccc(N2CCN(Cc3ccc4c([nH]c(=O)c5cnn(C)c54)c3F)CC2)c(F)n1 [Example 19, 6-fluoro-5-[4-({6-fluoro-1-methyl-4-oxo-5H-pyrazolo[4,3-c]quinolin-7-yl}methyl)piperazin-1-yl]-N-methylpyridine-2-carboxamide]
9.24	9.08	–	–	–	–	–	CNC(=O)c1ccc(N2CCN(Cc3ccc4c([nH]c(=O)c5c(F)cnn54)c3F)CC2)c(F)n1 [Example 28, 5-[4-({3,6-difluoro-4-oxo-5H-pyrazolo[1,5-a]quinoxalin-7-yl}methyl)piperazin-1-yl]-6-fluoro-N-methylpyridine-2-carboxamide]
8.85	8.74	–	–	–	–	–	CNC(=O)c1ccc(N2CCN(Cc3ccc4c([nH]c(=O)c5cc(F)nn54)c3F)CC2)c(F)n1 [Example 25, 5-[4-({2,6-difluoro-4-oxo-5H-pyrazolo[1,5-a]quinoxalin-7-yl}methyl)piperazin-1-yl]-6-fluoro-N-methylpyridine-2-carboxamide]
8.37	8.04	–	–	–	–	–	O=C(NC1CC1)c1ccc(N2CCN(Cc3ccc4c([nH]c(=O)c5ccnn54)c3F)CC2)c(F)n1 [Example 3]
8.40	8.21	–	–	–	–	–	CNC(=O)c1ccc(N2CCN(Cc3ccc4c([nH]c(=O)c5cn(C)nc54)c3F)CC2)c(F)n1 [Example 20, 6-fluoro-5-[4-({6-fluoro-2-methyl-4-oxo-5H-pyrazolo[4,3-c]quinolin-7-yl}methyl)piperazin-1-yl]-N-methylpyridine-2-carboxamide]
8.54	8.38	–	–	10.3	21.2	2.06	CNC(=O)c1ccc(N2CCN(Cc3ccc4c([nH]c(=O)c5cc(C)nn54)c3F)CC2)c(F)n1 [Example 5]
9.52	9.19	–	–	–	–	–	CNC(=O)c1ccc(N2CCN(Cc3ccc4c([nH]c(=O)c5cccn54)c3F)CC2)c(F)n1 [Example 10, 6-fluoro-5-[4-({6-fluoro-4-oxo-5H-pyrrolo[1,2-a]quinoxalin-7-yl}methyl)piperazin-1-yl]-N-methylpyridine-2-carboxamide]
8.68	8.42	–	–	–	–	–	CNC(=O)c1ccc(N2CCN(Cc3ccc4c([nH]c(=O)c5ccoc54)c3F)CC2)c(F)n1 [Example 6, 6-fluoro-5-[4-({6-fluoro-4-oxo-5H-furo[3,2-c]quinolin-7-yl}methyl)piperazin-1-yl]-N-methylpyridine-2-carboxamide]
8.92	8.68	–	–	4.4	8.6	1.96	Cc1cc2c(=O)[nH]c3c(F)c(CN4CCN(c5ccc(C(=O)NC6CC6)nc5F)CC4)ccc3n2n1 [Example 4]
9.03	8.74	–	–	–	–	–	CNC(=O)c1ccc(N2CCN(Cc3ccc4c([nH]c(=O)c5c(Cl)cnn54)c3F)CC2)c(F)n1 [Example 8]
